SMILES strings stand for the structures. pIC50: −log10 of the molar value. A value given as a limit tells only on which side of the number the result lay.

The test system of this assay is chicken dorsal root ganglion (DRG) neurons. Briefly: Neuronal viability assay (calcein-AM) in primary culture of chicken dorsal root ganglion neurons. Type of assay: cell-based, chicken (White Leghorn chick embryos). To be noted: Gallus gallus, DRG neuron, 48 h; survival of chick embryonic day 10 DRG neurons after two days of incubation; calcein-AM fluorescence; 0% = no neurotrophic factor, 100% = 10 ng/ml NGF; pIC50 from dose response curves; read-out: [C1] DRG assay SCORE. An excerpt:
This assay is based on a fluorimetric Calcein-AM measurement and addresses the functional response of neurons as a quantitative measure of survival.
Primary Culture of Chicken Dorsal Root Ganglion Neurons
Dorsal root ganglia were dissected from White Leghorn chick embryos at embryonic day 10 as described previously (Skaper S. D. and Varon S. (1986) Brain Research 389, 39-46). The ganglia were trypsinised and dissociated by mild trituration in a HBSS buffer supplemented with 0.6% glucose and 0.08% trypsin. To remove non-neuronal lo cells by differential attachment to culture plastic, the ganglionic cell suspension was diluted to 2.5×10^5 cells/ml and seeded on tissue culture plastic dishes at 10 ml per 100 mm dish. After 2 h preplating, unattached neurons were collected and resuspended into Basal Eagle Medium containing 10% FCS. To remove cell aggregates, the cell suspension was passed through a nylon mesh (50 μM) pore diameter. Neuron-enriched cell suspension was plated at 5×10^4 cells/ml into poly-L-ornithine (100 μg/ml) and laminine (1 μg/ml) coated multiwell 96 plates. Compounds were dissolved in dimethyl sulfoxide and kept as a stock at −20° C. NGF and compounds were diluted in the culture medium and added to the cells immediately after plating. The final concentration of dimethyl sulfoxide in the test medium was 0.1%. After two days of incubation, neuronal viability was assessed with calcein-AM.
Neuronal Viability Assay Using Calcein-AM
Neuronal viability assay using calcein AM was performed as previously described (Bozyczko-Coyne D., McKenna B. W., Connors T. J., and Neff N. T. (1993) Journal of Neuroscience Methods 50, 205-216). For the assay, calcein-AM was diluted in PBS to the final concentration (1 μM). For each experiment an aliquot of calcein-AM (1 mg/ml in DMSO stored at −20° C.) was thawed immediately before use. The medium was removed from the wells and replaced with the calcein-AM solution. Assay plates were incubated for 1 h at 37° C. in a humidified CO2 incubator. Following the incubation, reading was done in a Cytofluor II at an excitation wavelength of 485 nm and an emission wavelength of 530 nm. Each plate had control wells with no neurotrophic factor added (0% survival) and wells with 10 ng/ml NGF (100% survival).
The drugs to be tested were taken from a stock solution and tested at a final concentration ranging from […] to 3.10^−9M. From the thus obtained dose response curves, the pIC50 value was calculated and scored as follows; Score 1=pIC50 value <6, Score 2=pIC50 value in the range of 6 to 8, Score 3 =pIC50 value>8. (in this table NT stands for Not Tested).
Turning to `O=C(NCCCCCCNC(=O)N1CCC(Cc2c[nH]c3ccccc23)CC1)N1CCC(Cc2c[nH]c3ccccc23)CC1` [Compound 29], the pIC50 is 6.00 to 8.00.
Next, `CC(C)(C)Cc1nc(C2CCN(C(=O)CCCCCC(=O)N3CCC(c4noc(CC(C)(C)C)n4)CC3)CC2)no1` [Compound 4]: under 6.00.
On to `O=C(c1cccc(C(F)(F)F)c1)C1CCN(C(=O)NCCCCNC(=O)N2CCC(C(=O)c3cccc(C(F)(F)F)c3)CC2)CC1` [Compound 38], for which the pIC50 is 6.00 to 8.00.
Then `O=C(CCCCCCCC(=O)N1CCC(c2noc3cc(F)ccc23)CC1)N1CCC(c2noc3cc(F)ccc23)CC1` [Compound 42], with 6.00 to 8.00.
With `O=S(=O)(c1ccc(Oc2ccc(S(=O)(=O)N3CCC(O)(c4ccc(Cl)c(Cl)c4)CC3)cc2)cc1)N1CCC(O)(c2ccc(Cl)c(Cl)c2)CC1` [Compound 14], the pIC50 was 6.00 to 8.00.
Next, `O=C(CCCCCCCC(=O)N1CCC(O)(c2cccc(Cl)c2)CC1)N1CCC(O)(c2cccc(Cl)c2)CC1` [Compound 7]: under 6.00.
With `O=C(CCCCCCC(=O)N1CCC(OCc2cccc(C(F)(F)F)c2)CC1)N1CCC(OCc2cccc(C(F)(F)F)c2)CC1` [Compound 12], the pIC50 is 6.00 to 8.00.
Then `O=C(c1ccc(Cl)cc1)C1CCN(C(=O)CCCCCCCC(=O)N2CCC(C(=O)c3ccc(Cl)cc3)CC2)CC1` [Compound 23], with 6.00 to 8.00.
Then `O=C(CCCCCCCC(=O)N1CCC(O)(c2ccc(Cl)c(C(F)(F)F)c2)CC1)N1CCC(O)(c2ccc(Cl)c(C(F)(F)F)c2)CC1` [Compound 20], with 6.00 to 8.00; and `O=S(=O)(c1ccc(Oc2ccc(S(=O)(=O)N3CCC(O)(c4ccc(Cl)cc4)CC3)cc2)cc1)N1CCC(O)(c2ccc(Cl)cc2)CC1` [Compound 16], with 6.00 to 8.00; and `OC1(c2ccc(Cl)c(Cl)c2)CCN(CC#CCN2CCC(O)(c3ccc(Cl)c(Cl)c3)CC2)CC1` [Compound 47], with 6.00 to 8.00.
Next, `O=C(NCCCCCCNC(=O)N1CCC(c2noc3cc(F)ccc23)CC1)N1CCC(c2noc3cc(F)ccc23)CC1` [Compound 30]: 6.00 to 8.00; `c1ccc2c(CC3CCN(CCCN4CCC(Cc5c[nH]c6ccccc56)CC4)CC3)c[nH]c2c1` [Compound 39]: 6.00 to 8.00; `OC(CN1CCC(O)(c2ccc(Cl)cc2)CC1)CN1CCC(O)(c2ccc(Cl)cc2)CC1` [Compound 19]: 6.00 to 8.00.
Consider `O=C(c1ccc(F)cc1)C1CCN(C(=O)CCCCCCCC(=O)N2CCC(C(=O)c3ccc(F)cc3)CC2)CC1` [Compound 45], for which the pIC50 is under 6.00.
As to `O=C(Nc1ccc(NC(=O)N2CCC(O)(c3ccc(Cl)c(C(F)(F)F)c3)CC2)cc1)N1CCC(O)(c2ccc(Cl)c(C(F)(F)F)c2)CC1` [Compound 34], the pIC50 is 6.00 to 8.00.
Take `O=C(CCCCCCCC(=O)N1CCC(O)(c2ccc(Cl)c(Cl)c2)CC1)N1CCC(O)(c2ccc(Cl)c(Cl)c2)CC1` [Compound 22]: the pIC50 is under 6.00.
Next, `O=C(NCCCCCCNC(=O)N1CCC(O)(c2cccc(C(F)(F)F)c2)C(O)C1)N1CCC(O)(c2cccc(C(F)(F)F)c2)C(O)C1` (stereo not drawn) [Compound 3]: 6.00 to 8.00; `c1ccc2c(c1)CCN2C1CCN(CCCCCCCCCCCCN2CCC(N3CCc4ccccc43)CC2)CC1` [Compound 2]: 6.00 to 8.00.
As for `O=S(=O)(c1ccc(Cc2ccc(S(=O)(=O)N3CCC(O)(c4ccc(Cl)c(Cl)c4)CC3)cc2)cc1)N1CCC(O)(c2ccc(Cl)c(Cl)c2)CC1` [Compound 13], the pIC50 was under 6.00.
Then `O=C(Nc1ccc(Cc2ccc(NC(=O)N3CCC(O)(c4ccc(F)cc4)CC3)cc2)cc1)N1CCC(O)(c2ccc(F)cc2)CC1` [Compound 32], with under 6.00.
As to `OC1(c2ccc(Cl)cc2)CCN(CC#CCN2CCC(O)(c3ccc(Cl)cc3)CC2)CC1` [Compound 26], the pIC50 is over 8.00.
Next, `O=C(CCCCCCC(=O)N1CCC(Oc2nc3ccccc3s2)CC1)N1CCC(Oc2nc3ccccc3s2)CC1` [Compound 11]: 6.00 to 8.00; `O=S(=O)(c1ccc(Oc2ccc(S(=O)(=O)N3CCC(O)(c4cccc(Cl)c4)CC3)cc2)cc1)N1CCC(O)(c2cccc(Cl)c2)CC1` [Compound 15]: 6.00 to 8.00; `C(#CCN1CCC(c2c[nH]c3ccccc23)CC1)CN1CCC(c2c[nH]c3ccccc23)CC1` [Compound 17]: 6.00 to 8.00.
Consider `O=S(=O)(c1ccc(Oc2ccc(S(=O)(=O)N3CCC(O)(c4ccc(Br)cc4)CC3)cc2)cc1)N1CCC(O)(c2ccc(Br)cc2)CC1` [Compound 6], for which the pIC50 is under 6.00.
Then `O=C(c1cccc(C(=O)N2CCC(O)(c3cccc(C(F)(F)F)c3)CC2)c1)N1CCC(O)(c2cccc(C(F)(F)F)c2)CC1` [Compound 44], with under 6.00; and `O=C(NCCCCCCNC(=O)N1CCC(O)(c2ccc(Cl)cc2)CC1)N1CCC(O)(c2ccc(Cl)cc2)CC1` [Compound 28], with 6.00 to 8.00.
Next, `O=C(NCCCCCCNC(=O)N1CCC(O)(c2ccc(Cl)c(C(F)(F)F)c2)CC1)N1CCC(O)(c2ccc(Cl)c(C(F)(F)F)c2)CC1` [Compound 48]: 6.00 to 8.00; `O=C(NCCCCCCNC(=O)N1CCC(Cc2nc3ccccc3s2)CC1)N1CCC(Cc2nc3ccccc3s2)CC1` [Compound 36]: 6.00 to 8.00.
Next, `O=C(c1ccc(F)cc1)C1CCN(CC#CCN2CCC(C(=O)c3ccc(F)cc3)CC2)CC1` [Compound 1]: over 8.00; `O=C(c1cccc(C(=O)N2CCC(O)(c3ccc(Cl)c(Cl)c3)CC2)c1)N1CCC(O)(c2ccc(Cl)c(Cl)c2)CC1` [Compound 43]: under 6.00.
Consider `COc1ccc(-c2noc(C3CCN(C(=O)c4ccc(-c5ccc(C(=O)N6CCC(c7nc(-c8ccc(OC)c(OC9CCCC9)c8)no7)CC6)cc5)cc4)CC3)n2)cc1OC1CCCC1` [Compound 41], for which the pIC50 is 6.00 to 8.00.
Next, `O=C(c1ccc(Cl)cc1)C1CCN(C(=O)CCCCC(=O)N2CCC(C(=O)c3ccc(Cl)cc3)CC2)CC1` [Compound 24]: 6.00 to 8.00.
Then `O=C(CCCCC(=O)N1CCC(O)(c2ccc(Cl)c(C(F)(F)F)c2)CC1)N1CCC(O)(c2ccc(Cl)c(C(F)(F)F)c2)CC1` [Compound 25], with under 6.00; and `O=C(c1cccc(C(=O)N2CCC(O)(c3ccc(Cl)c(C(F)(F)F)c3)CC2)c1)N1CCC(O)(c2ccc(Cl)c(C(F)(F)F)c2)CC1` [Compound 21], with 6.00 to 8.00; and `COc1cc2nc(NCC3CCN(C(=O)NCCCCCCNC(=O)N4CCC(CNc5nc6cc(OC)c(OC)cc6s5)CC4)CC3)sc2cc1OC` [Compound 27], with 6.00 to 8.00.
Then `O=C(CCCCC(=O)N1CCC(OCc2cccc(C(F)(F)F)c2)CC1)N1CCC(OCc2cccc(C(F)(F)F)c2)CC1` [Compound 10], with 6.00 to 8.00; and `O=S(=O)(c1ccc(Cc2ccc(S(=O)(=O)N3CCC(O)(c4cccnc4)CC3)cc2)cc1)N1CCC(O)(c2cccnc2)CC1` [Compound 5], with 6.00 to 8.00; and `Fc1ccc2c(C3CCN(CC#CCN4CCC(c5noc6cc(F)ccc56)CC4)CC3)noc2c1` [Compound 40], with 6.00 to 8.00.
As to `OC(CN1CCC(O)(c2cccc(C(F)(F)F)c2)C(O)C1)CN1CCC(O)(c2cccc(C(F)(F)F)c2)C(O)C1` (stereo not drawn) [Compound 18], the pIC50 was 6.00 to 8.00.
Next, `O=C(Nc1ccc(NC(=O)N2CCC(O)(c3cccc(C(F)(F)F)c3)CC2)cc1)N1CCC(O)(c2cccc(C(F)(F)F)c2)CC1` [Compound 33]: 6.00 to 8.00.

The values above are taken from patent US20080015225A1, “Dimeric Piperidine Derivatives” (JANSSEN PHARMACEUTICA N.V., priority 2004, published 2008).
